# Biological target: T1, Bcl-2 protein (Recombinant Human Bcl-2 Protein) (Homo sapiens, UniProt P10415)
# T1 construct: purchased Novus NBP2-34889
# Assay: Binding evaluation of mixture library compounds to Bcl-2 using AS-MS (affinity selection mass spectrometry)
# Details: for ASMS ratio (%) n = 1 / ASMS ratio (%) n = 2: ASMS Ratio(%)=(A−C)/B×100; for ASMS ratio (%) n = 1: replicate n = 1; for ASMS ratio (%) n = 2: replicate n = 2
# Experimental: For one well of MICROPLATE, 96-well, PP, V-BOTTOM (Greiner bio-one, 651201), DMSO solutions of 12 mixtures (prepared to approximately 0.58 mM based on calculations from the average molecular weight of each mixture), in each of which 100 compounds are mixed, were each dispensed, and dispensed into a total of 12 wells, where the 12 mixtures are mixAI-B4J-01, mixAI-B1M-01, mixAI-B1K-01, mixAI-B10-01, mixAI-B1A-01, mixAI-B3A-01, mixAI-B21-01, mixAI-B2L-01, mixAI-B2N-01, mixAI-B2A-01, mixAI-B2Q-01, and mixAI-B2R-01 listed in [Table AI-03-B4J-01], [Table AI-03-B1M-01], [Table AI-03-B1K-01], [Table AI-03-B10-01], [Table AI-03-B1A-01], [Table AI-03-B3A-01], [Table AI-03-B2I-01], [Table AI-03-B2L-01], [Table AI-03-B2N-01], [Table AI-03-B2A-01], [Table AI-03-B2Q-01], and [AI-03-B2R-01] shown in Example 6. Using the LABCYTE ECHO® 555 Acoustic Dispensing System (BECKMAN COULTER), 70 nL was collected from each of the 12 wells into one arbitrary well to prepare a sample solution with 1200 compounds in the mixed state (the presence of 1152 compounds had already been identified when prepared in Example 6-5-3). (In the present specification, the mixture collected in this one well is referred to as one library.) Furthermore, a Bcl-2 protein (Novus, NBP2-34889, Recombinant Human Bcl-2 Protein, Lot E60145051) (19.2 μL) that had been prepared in advance to be 20.9 μM using a Tris-HCl buffer (25 mM Tris-HCl pH 7.4, 150 mM NaCl, 0.025% Tween-20, 1 mM DTT) was added to the well in which 1200 compounds (the presence of 1152 compounds had already been identified when prepared in Example 6-5-3) were dispensed (final compound concentration […], final Bcl-2 concentration 20 μM), and the mixture was incubated in the dark at 23° C. for 1 hour. Next, using the 96-well MacroSpin column, P-2 Material (Harvard, 74-5655) that had been swollen, conditioning of the 96-well MacroSpin column was performed three times by centrifugation with 200 μL of an assay buffer (25 mM Tris-HCl pH 7.4, 150 mM NaCl, 0.025% Tween-20, 1 mM DTT), 2000 XG, 4° C., 2 min. Subsequently, 20 μL of the sample after incubation was added to the 96-well MacroSpin column, P-2 Material, that had been conditioned, and SEC treatment was performed by centrifugation at 2000×G for 2 minutes. To the liquid passed from the SEC, 32 μL of a 1:1 mixed solution of acetonitrile and methanol (LC/MS grade, Fujifilm Wako Pure Chemical Corporation) was added, the mixture was centrifuged at 1800×G, 4° C., 5 min, and the supernatant was used as analysis sample ASMS (A), while a sample that had been prepared by the same operations at 1200 compounds/well and to which only the Tris-HCl buffer had been added without the Bcl-2 protein was incubated under the same conditions, no 96-well MacroSpin column treatment was performed, the same organic solvent was added, and the supernatant solution obtained by centrifugation was used as STD (B). Next, a sample that had been prepared by the same operations at 1200 compounds/well and to which only the Tris-HCl buffer had been added without the Bcl-2 protein was incubated under the same conditions, the same 96-well MacroSpin column treatment was performed, the same organic solvent was added, and the supernatant solution obtained by centrifugation was used as BK (C), and measured by reversed phase LC/MS.
# Then, analysis of the 1200 compounds was carried out for samples A, B, and C with TraceFinder 5.1 (Thermo Fisher Scientific) and CHANCE Software (in-house), and the ASMS Ratio (%) was calculated according to the following calculation formula.
# Calculation formula: ASMS Ratio(%)=(A−C)/B×100
# [1] = AS-MS, mixture of 1200 compounds, Bcl-2
# [2] = AS-MS on the mixture of 1200 library compounds
# T1 sequence (P10415 whole entry): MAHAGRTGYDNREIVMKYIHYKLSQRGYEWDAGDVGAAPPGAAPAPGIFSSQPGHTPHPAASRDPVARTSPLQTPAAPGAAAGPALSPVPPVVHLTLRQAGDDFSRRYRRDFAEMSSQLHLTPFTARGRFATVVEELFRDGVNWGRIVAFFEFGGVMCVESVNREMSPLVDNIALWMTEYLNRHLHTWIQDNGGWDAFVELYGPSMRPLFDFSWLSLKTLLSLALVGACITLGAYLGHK
compound,measurement,setting,value
"CCOc1cncc(-c2cc(CN3CCN(c4ccc(C(=O)NCC(F)(F)F)cc4)CC3)cc(OC(C)C)c2)c1 [B1K058-01, 4-[4-[[3-(5-Ethoxypyridin-3-yl)-5-propan-2-yloxyphenyl]methyl]piperazin-1-yl]-N-(2,2,2-trifluoroethyl)benzamide]",ASMS ratio (%) n = 1,[1],1.3%
same,ASMS ratio (%) n = 2,[1],0.1%
"CCOc1cccc(-c2ccc(C(=O)N3CCN(c4ccc(C(=O)N(C)CC56CC7CC(CC(C7)C5)C6)cc4)CC3)cc2F)c1 [B3A027-01, N-(1-Adamantylmethyl)-4-[4-[4-(3-ethoxyphenyl)-3-fluorobenzoyl]piperazin-1-yl]-N-methylbenzamide]",ASMS ratio (%) n = 1,[2],−0.7%
same,ASMS ratio (%) n = 2,[2],−1.6%
"CCOc1cccc(-c2ccccc2CCC(=O)N2CCN(c3ccc(C(=O)NS(=O)(=O)c4ccc(NCCSc5ccccc5)c(C(F)(F)F)c4)nn3)CC2)c1 [B2R011-01, 6-[4-[3-[2-(3-Ethoxyphenyl)phenyl]propanoyl]piperazin-1-yl]-N-[4-(2-phenylsulfanylethylamino)-3-(trifluoromethyl)phenyl]sulfonylpyridazine-3-carboxamide]",ASMS ratio (%),n = 1,17.7%
same,ASMS ratio (%),n = 2,−1.3%
"CCOc1cccc(-c2ccccc2CCC(=O)N2CCN(c3ccc(C(=O)Nc4ccc(OC)cc4)cc3)CC2)c1 [B1O033-01, 4-[4-[3-[2-(3-Ethoxyphenyl)phenyl]propanoyl]piperazin-1-yl]-N-(4-methoxyphenyl)benzamide]",ASMS ratio (%) n = 1,[2],1.9%
same,ASMS ratio (%) n = 2,[2],4.2%
"CCOc1cncc(-c2ccc(C(=O)N3CCN(c4ccc(C(=O)NCC(F)(F)F)nn4)CC3)c3ccccc23)c1 [B1K014-01, 6-[4-[4-(5-Ethoxypyridin-3-yl)naphthalene-1-carbonyl]piperazin-1-yl]-N-(2,2,2-trifluoroethyl)pyridazine-3-carboxamide]",ASMS ratio (%) n = 1,[1],−0.3%
same,ASMS ratio (%) n = 2,[1],0.0%
"CCOc1cncc(C#Cc2cncc(C(=O)N3CCN(c4ccc(C(=O)NS(=O)(=O)c5ccc(NCCSc6ccccc6)c(C(F)(F)F)c5)nn4)CC3)c2)c1 [B2R010-01, 6-[4-[5-[2-(5-Ethoxypyridin-3-yl)ethynyl]pyridine-3-carbonyl]piperazin-1-yl]-N-[4-(2-phenylsulfanylethylamino)-3-(trifluoromethyl)phenyl]sulfonylpyridazine-3-carboxamide]",ASMS ratio (%),n = 1,0.0%
same,ASMS ratio (%),n = 2,0.0%
"CCOc1cccc(-c2ccc(CN3CCN(c4ccc(C(=O)Nc5ccc(OC)cc5)nn4)CC3)cc2F)c1 [B1O077-01, 6-[4-[[4-(3-Ethoxyphenyl)-3-fluorophenyl]methyl]piperazin-1-yl]-N-(4-methoxyphenyl)pyridazine-3-carboxamide]",ASMS ratio (%) n = 1,[2],4.1%
same,ASMS ratio (%) n = 2,[2],0.4%
"CCOc1cccc(-c2cc(C(=O)N3CCN(c4ccc(C(=O)NS(=O)(=O)C(C)(C)C)cc4)CC3)cc(C(C)(C)C)c2)c1 [B2L037-01, 4-[4-[3-tert-Butyl-5-(3-ethoxyphenyl)benzoyl]piperazin-1-yl]-N-tert-butylsulfonylbenzamide]",ASMS ratio (%),n = 1,0.0%
same,ASMS ratio (%),n = 2,0.0%
"CCOc1cccc(-c2ccccc2CN2CCN(c3ccc(C(=O)NS(C)(=O)=O)cc3)CC2)c1 [B2I045-01, 4-[4-[[2-(3-Ethoxyphenyl)phenyl]methyl]piperazin-1-yl]-N-methylsulfonylbenzamide]",ASMS ratio (%),n = 1,−0.3%
same,ASMS ratio (%),n = 2,0.2%
"CCOc1cccc(-c2ccc(CN3CCN(c4ccc(C(=O)NS(C)(=O)=O)cc4)CC3)c(CC)c2)c1 [B2I049-01, 4-[4-[[4-(3-Ethoxyphenyl)-2-ethylphenyl]methyl]piperazin-1-yl]-N-methylsulfonylbenzamide]",ASMS ratio (%),n = 1,0.0%
same,ASMS ratio (%),n = 2,0.0%
"CCOc1cccc(-c2ccccc2CCC(=O)N2CCN(c3ccc(C(=O)NCC(F)(F)F)nn3)CC2)c1 [B1K011-01, 6-[4-[3-[2-(3-Ethoxyphenyl)phenyl]propanoyl]piperazin-1-yl]-N-(2,2,2-trifluoroethyl)pyridazine-3-carboxamide]",ASMS ratio (%) n = 1,[1],−0.1%
same,ASMS ratio (%) n = 2,[1],0.3%
CCOc1cccc(-c2ccc(CN3CCN(c4ccc(C(=O)NCC(F)(F)F)cc4)CC3)c(OC)c2)c1 [B1K053-01],ASMS ratio (%) n = 1,[1],−0.5%
same,ASMS ratio (%) n = 2,[1],−3.3%
"CCOc1cccc(C#Cc2ccccc2C(=O)N2CCN(c3ccc(C(=O)Nc4ccc(OC)cc4)nn3)CC2)c1 [B1O007-01, 6-[4-[2-[2-(3-Ethoxyphenyl)ethynyl]benzoyl]piperazin-1-yl]-N-(4-methoxyphenyl)pyridazine-3-carboxamide]",ASMS ratio (%) n = 1,[2],4.5%
same,ASMS ratio (%) n = 2,[2],0.9%
"CCOc1cncc(-c2csc(CN3CCN(c4ccc(C(=O)N(C)CC56CC7CC(CC(C7)C5)C6)nn4)CC3)c2)c1 [B3A094-01, N-(1-Adamantylmethyl)-6-[4-[[4-(5-ethoxypyridin-3-yl)thiophen-2-yl]methyl]piperazin-1-yl]-N-methylpyridazine-3-carboxamide]",ASMS ratio (%) n = 1,[2],3.7%
same,ASMS ratio (%) n = 2,[2],0.5%
"CCOc1cccc(-c2ccc(CN3CCN(c4ccc(C(=O)NS(=O)(=O)C(C)(C)C)nn4)CC3)cc2C)c1 [B2L073-01, N-tert-Butylsulfonyl-6-[4-[[4-(3-ethoxyphenyl)-3-methylphenyl]methyl]piperazin-1-yl]pyridazine-3-carboxamide]",ASMS ratio (%),n = 1,0.0%
same,ASMS ratio (%),n = 2,0.0%
"CCOc1cncc(-c2ccc(C(=O)N3CCN(c4ccc(C(=O)NCC(F)(F)F)nn4)CC3)cc2F)c1 [B1K006-01, 6-[4-[4-(5-Ethoxypyridin-3-yl)-3-fluorobenzoyl]piperazin-1-yl]-N-(2,2,2-trifluoroethyl)pyridazine-3-carboxamide]",ASMS ratio (%) n = 1,[1],−0.6%
same,ASMS ratio (%) n = 2,[1],0.0%
CCOc1cccc(-c2ccc(CN3CCN(c4ccc(C(=O)NS(=O)(=O)C(C)(C)C)cc4)CC3)c(OC)c2)c1 [B2L053-01],ASMS ratio (%),n = 1,0.0%
same,ASMS ratio (%),n = 2,0.0%
"CCOc1cccc(-c2cnn(-c3cc(C(=O)N4CCN(c5ccc(C(=O)NS(=O)(=O)CCC(F)(F)F)cc5)CC4)cc(C(F)(F)F)c3)c2)c1 [B2N043-01, 4-[4-[3-[4-(3-Ethoxyphenyl)pyrazol-1-yl]-5-(trifluoromethyl)benzoyl]piperazin-1-yl]-N-(3,3,3-trifluoropropylsulfonyl)benzamide]",ASMS ratio (%),n = 1,−1.4%
same,ASMS ratio (%),n = 2,0.1%
"CCOc1cncc(-c2ccc(CN3CCN(c4ccc(C(=O)NS(=O)(=O)CCC(F)(F)F)nn4)CC3)cc2C)c1 [B2N074-01, 6-[4-[[4-(5-Ethoxypyridin-3-yl)-3-methylphenyl]methyl]piperazin-1-yl]-N-(3,3,3-trifluoropropylsulfonyl)pyridazine-3-carboxamide]",ASMS ratio (%),n = 1,0.0%
same,ASMS ratio (%),n = 2,0.0%

# From patent US20240132431A1, “METHOD FOR ALKYLATING ACIDIC FUNCTIONAL GROUP” (Chugai Seiyaku Kabushiki Kaisha, priority 2021, published 2024)
